Experimental data taken from patent US11691949B2, “Quinoline sulfonamide compounds and their use as antibacterial agents” (OTAGO INNOVATION LIMITED, priority 2017, dated 2023).
Values after ≈ are worked out from the molar mass of the structure shown. Like-named read-outs stand apart in the source and are kept apart here.

Assays:
Format in all cases: cell-based
E. coli ATCC 10596 = assay: MIC by broth microdilution, E. coli; conditions: Escherichia coli, read-out: E. coli ATCC 10536 MIC
Method: (§1) Antibacterial susceptibility testing was performed in triplicate (biological) by measuring minimum inhibitory concentrations (MICs) by broth microdilution in 96-well flat bottom microtiter plates (ThermoFisher Scientific, New Zealand). S. uberis ATCC 19436, S. aureus ATCC 6538, or E. coli ATCC 10596 cells grown overnight were diluted to an OD600 of approximately 0.025, so that the final concentration of cells in the MIC assay was approximately 5×10^5 cfu/mL in media as follows: S. uberis; Todd Hewitt Broth (THB), S. aureus; Tryptic Soy Broth (TSB) and Cation Adjusted Muller Hinton Broth (CAMHB), and E. coli; Lysogeny Borth (LB) and CAMHB, before being dispensed into microtiter wells. As required additional sterile Zinc Sulphate (Heptahydrate) was supplemented into the media, so the final concentration was 50 μM. Test compounds were added to starting wells and two-fold serial dilutions were undertaken to generate a range of inhibitor concentrations at a final volume of 200 μl. Media and test compound-free (untreated) controls were included in each microtiter plate in triplicate. After 24 h incubation at 37° C. and 200 rpm, the OD600 of wells were read using a Varioskan Flash plate reader (ThermoFisher Scientific, New Zealand). The MIC was reported as the lowest concentration of the test compound for which no growth occurred, as determined by OD600 readings. The minimum bactericidal concentration (MBC) was determined using the Miles-Misra drop-plate method to measure the viability of cells in response to test compound challenge.

S. aureus ATCC 6538 = assay: MIC by broth microdilution, S. aureus; conditions: Staphylococcus aureus, read-out: S. aureus ATCC 6538 MIC
Method: as §1

S. uberis ATCC 19436 = assay: MIC by broth microdilution, S. uberis; conditions: Streptococcus uberis, read-out: S. uberis ATCC 19436 MIC
Method: as §1

[1] = ATCC 10536 / ATCC 10596, No Zinc
[2] = ATCC 10536 / ATCC 10596, Zinc (50 μM)

| Structure (SMILES) | MIC (E. coli ATCC 10596; [1]) | MIC (E. coli ATCC 10596; [2]) | MIC (S. aureus ATCC 6538; ATCC6538, No Zinc) | MIC (S. aureus ATCC 6538; ATCC6538, Zinc (50 μM)) | MIC (S. uberis ATCC 19436; ATCC19436, No Zinc) | MIC (S. uberis ATCC 19436; ATCC19436, Zinc (50 μM)) |
| --- | --- | --- | --- | --- | --- | --- |
| CN(C)Cc1ccc2cccc(NS(=O)(=O)c3ccsc3)c2n1 [ZDR081, N-(2-((Dimethylamino)methyl)quinolin-8-yl)thiophene-3-sulfonamide] | > 256 µg/mL | > 256 µg/mL | > 256 µg/mL | > 256 µg/mL | 256 µg/mL (≈ 737 µM) | 0.25 µg/mL (≈ 0.719 µM) |
| Cc1noc(C)c1S(=O)(=O)Nc1cccc2ccc(CN(C)C)nc12 [ZDR082, N-(2-((Dimethylamino)methyl)quinolin-8-yl)-3,5-dimethylisoxazole-4-sulfonamide] | > 256 µg/mL | > 256 µg/mL | > 256 µg/mL | > 256 µg/mL | > 256 µg/mL | 0.125 µg/mL (≈ 0.347 µM) |
| CN(C)Cc1ccc2cccc(NS(=O)(=O)c3cccc(Cl)c3)c2n1 [ZDR084, 3-Chloro-N-(2-((dimethylamino)methyl)quinolin-8-yl)benzenesulfonamide] | 256 µg/mL (≈ 681 µM) | > 256 µg/mL | 256 µg/mL (≈ 681 µM) | > 256 µg/mL | 128 µg/mL (≈ 341 µM) | 0.0625 µg/mL (≈ 0.166 µM) |
| CN(C)Cc1ccc2cccc(NS(=O)(=O)c3cccc(OC(F)(F)F)c3)c2n1 [ZDR085, N-(2-((Dimethylamino)methyl)quinolin-8-yl)-3-(trifluoromethoxy)benzenesulfonamide] | 256 µg/mL (≈ 602 µM) | > 256 µg/mL | 256 µg/mL (≈ 602 µM) | > 256 µg/mL | 128 µg/mL (≈ 301 µM) | < 0.125 µg/mL |
| O=S(=O)(Nc1cccc2ccc(CNC3CC3)nc12)c1ccc(C(F)(F)F)cc1 [ZDR086, N-(2-((Cyclopropylamino)methyl)quinolin-8-yl)-4-(trifluoromethyl)benzenesulfonamide] | 128 µg/mL (≈ 304 µM) | 256 µg/mL (≈ 607 µM) | 64 µg/mL (≈ 152 µM) | > 256 µg/mL | 64 µg/mL (≈ 152 µM) | 0.25 µg/mL (≈ 0.593 µM) |
| O=S(=O)(Nc1cccc2ccc(CNCC3CC3)nc12)c1ccc(C(F)(F)F)cc1 [ZDR087, N-(2-(((Cyclopropylmethyl)amino)methyl)quinolin-8-yl)-4-(trifluoromethyl)benzenesulfonamide] | 256 µg/mL (≈ 588 µM) | > 256 µg/mL | 128 µg/mL (≈ 294 µM) | > 256 µg/mL | 256 µg/mL (≈ 588 µM) | 0.25 µg/mL (≈ 0.574 µM) |
| O=S(=O)(Nc1cccc2ccc(CN3CCSCC3)nc12)c1ccc(C(F)(F)F)cc1 [ZDR088, N-(2-(Thiomorpholinomethyl)quinolin-8-yl)-4-(trifluoromethyl)benzenesulfonamide] | > 256 µg/mL | > 256 µg/mL | > 256 µg/mL | > 256 µg/mL | > 256 µg/mL | 0.0625 µg/mL (≈ 0.134 µM) |
| CN1CCN(Cc2ccc3cccc(NS(=O)(=O)c4ccc(C(F)(F)F)cc4)c3n2)CC1 [ZDR089, N-(2-((4-Methylpiperazin-1-yl)methyl)quinolin-8-yl)-4-(trifluoromethyl)benzenesulfonamide] | > 256 µg/mL | > 256 µg/mL | 256 µg/mL (≈ 551 µM) | 128 µg/mL (≈ 276 µM) | 64 µg/mL (≈ 138 µM) | 0.5 µg/mL (≈ 1.08 µM) |
| O=S(=O)(Nc1cccc2ccc(CNCC(O)CO)nc12)c1ccc(C(F)(F)F)cc1 (stereo not drawn) [ZDR093, N-(2-(((2,3-Dihydroxypropyl)amino)methyl)quinolin-8-yl)-4-(trifluoromethyl)benzenesulfonamide] | 256 µg/mL (≈ 562 µM) | > 256 µg/mL | 64 µg/mL (≈ 141 µM) | 128 µg/mL (≈ 281 µM) | 64 µg/mL (≈ 141 µM) | 16 µg/mL (≈ 35.1 µM) |
| O=S(=O)(Nc1cccc2ccc(CN(CCO)CCO)nc12)c1ccc(C(F)(F)F)cc1 [ZDR094, N-(2-((Bis(2-hydroxyethyl)amino)methyl)quinolin-8-yl)-4-(trifluoromethyl)benzenesulfonamide] | 256 µg/mL (≈ 545 µM) | 256 µg/mL (≈ 545 µM) | 62 µg/mL (≈ 132 µM) | 32 µg/mL (≈ 68.2 µM) | 32 µg/mL (≈ 68.2 µM) | 4 µg/mL (≈ 8.52 µM) |
| O=S(=O)(Nc1cccc2ccc(CN(Cc3ccccn3)Cc3ccccn3)nc12)c1ccc(C(F)(F)F)cc1 [ZDR096, N-(2-((Bis(pyridin-2-ylmethyl)amino)methyl)quinolin-8-yl)-4-(trifluoromethyl)benzenesulfonamide] | > 256 µg/mL | > 256 µg/mL | > 256 µg/mL | > 256 µg/mL | 64 µg/mL (≈ 114 µM) | 4 µg/mL (≈ 7.1 µM) |
| C=CCNCc1ccc2cccc(NS(=O)(=O)c3ccc(C(F)(F)F)cc3)c2n1 [ZDR097, N-(2-((Allylamino)methyl)quinolin-8-yl)-4-(trifluoromethyl)benzenesulfonamide] | > 256 µg/mL | 256 µg/mL (≈ 607 µM) | > 256 µg/mL | > 256 µg/mL | > 256 µg/mL | 0.0625 µg/mL (≈ 0.148 µM) |
| C#CCNCc1ccc2cccc(NS(=O)(=O)c3ccc(C(F)(F)F)cc3)c2n1 [ZDR098, N-(2-((Prop-2-yn-1-ylamino)methyl)quinolin-8-yl)-4-(trifluoromethyl)benzenesulfonamide] | > 256 µg/mL | > 256 µg/mL | 64 µg/mL (≈ 153 µM) | > 256 µg/mL | 64 µg/mL (≈ 153 µM) | 0.125 µg/mL (≈ 0.298 µM) |
| O=S(=O)(Nc1cccc2ccc(CNCCF)nc12)c1ccc(C(F)(F)F)cc1 [ZDR099, N-(2-(((2-Fluoroethyl)amino)methyl)quinolin-8-yl)-4-(trifluoromethyl)benzenesulfonamide] | > 256 µg/mL | 256 µg/mL (≈ 599 µM) | 64 µg/mL (≈ 150 µM) | > 256 µg/mL | 64 µg/mL (≈ 150 µM) | 0.25 µg/mL (≈ 0.585 µM) |
| O=S(=O)(Nc1cccc2ccc(CNCC(F)F)nc12)c1ccc(C(F)(F)F)cc1 [ZDR100, N-(2-(((2,2-Difluoroethyl)amino)methyl)quinolin-8-yl)-4-(trifluoromethyl)benzenesulfonamide] | > 256 µg/mL | > 256 µg/mL | 32 µg/mL (≈ 71.8 µM) | 256 µg/mL (≈ 575 µM) | 128 µg/mL (≈ 287 µM) | 0.25 µg/mL (≈ 0.561 µM) |
| O=S(=O)(Nc1cccc2ccc(CNCc3cccnc3)nc12)c1ccc(C(F)(F)F)cc1 [ZDR101, N-(2-(((Pyridin-3-ylmethyl)amino)methyl)quinolin-8-yl)-4-(trifluoromethyl)benzenesulfonamide] | 128 µg/mL (≈ 271 µM) | > 256 µg/mL | 64 µg/mL (≈ 135 µM) | 64 µg/mL (≈ 135 µM) | > 256 µg/mL | 4 µg/mL (≈ 8.47 µM) |
| O=S(=O)(Nc1cccc2ccc(CNCc3ccccc3)nc12)c1ccc(C(F)(F)F)cc1 [ZDR103] | > 256 µg/mL | > 256 µg/mL | 128 µg/mL (≈ 271 µM) | > 256 µg/mL | > 256 µg/mL | 0.125 µg/mL (≈ 0.265 µM) |
| O=S(=O)(Nc1cccc2ccc(CNCc3ccco3)nc12)c1ccc(C(F)(F)F)cc1 [ZDR106, N-(2-(((Furan-2-ylmethyl)amino)methyl)quinolin-8-yl)-4-(trifluoromethyl)benzenesulfonamide] | > 256 µg/mL | > 256 µg/mL | > 256 µg/mL | > 256 µg/mL | 64 µg/mL (≈ 139 µM) | 0.25 µg/mL (≈ 0.542 µM) |
| O=S(=O)(Nc1cccc2ccc(CNCc3cccs3)nc12)c1ccc(C(F)(F)F)cc1 [ZDR107, N-(2-(((Thiophen-2-ylmethyl)amino)methyl)quinolin-8-yl)-4-(trifluoromethyl)benzenesulfonamide] | > 256 µg/mL | > 256 µg/mL | > 256 µg/mL | 64 µg/mL (≈ 134 µM) | 64 µg/mL (≈ 134 µM) | 0.125 µg/mL (≈ 0.262 µM) |
| O=S(=O)(Nc1cccc2ccc(CNc3ccccc3)nc12)c1ccc(C(F)(F)F)cc1 [ZDR108, N-(2-((Phenylamino)methyl)quinolin-8-yl)-4-(trifluoromethyl)benzenesulfonamide] | > 256 µg/mL | > 256 µg/mL | 64 µg/mL (≈ 140 µM) | > 256 µg/mL | > 256 µg/mL | 0.25 µg/mL (≈ 0.546 µM) |
| O=S(=O)(Nc1cccc2ccc(CNc3ccccn3)nc12)c1ccc(C(F)(F)F)cc1 [ZDR109, N-(2-((Pyridin-2-ylamino)methyl)quinolin-8-yl)-4-(trifluoromethyl)benzenesulfonamide] | > 256 µg/mL | > 256 µg/mL | > 256 µg/mL | > 256 µg/mL | > 256 µg/mL | 0.5 µg/mL (≈ 1.09 µM) |
| O=S(=O)(Nc1cccc2ccc(CNCc3ccncc3)nc12)c1ccc(C(F)(F)F)cc1 [ZDR110, N-(2-(((Pyridin-4-ylmethyl)amino)methyl)quinolin-8-yl)-4-(trifluoromethyl)benzenesulfonamide] | > 256 µg/mL | > 256 µg/mL | > 256 µg/mL | > 256 µg/mL | > 256 µg/mL | 4 µg/mL (≈ 8.47 µM) |
| O=S(=O)(Nc1cccc2ccc(CNCCN3CCSCC3)nc12)c1ccc(C(F)(F)F)cc1 [ZDR113, N-(2-(((2-Thiomorpholinoethyl)amino)methyl)quinolin-8-yl)-4-(trifluoromethyl)benzenesulfonamide] | > 256 µg/mL | > 256 µg/mL | > 256 µg/mL | > 256 µg/mL | 128 µg/mL (≈ 251 µM) | 1 µg/mL (≈ 1.96 µM) |
